These are literature values, as cited in the CATMoS acute toxicity set (Mansouri et al. 2021).

“And” between values parts separate entries of the source, which are not always exact repeats. Equal entries are not always repeated. *1 amine or outer side, *2 acyl side, *3 side chain or, on linkers, in order; H or OH if unused. Where a SMILES comes first, the peptide text is derived from it. Bridges are numbered along the chain shown (N, C = ends). Roman numbers before positions name the chains, in order. [ ]: non-standard residue; d: D form. Actinocin(9to1) = Cc1c2oc3c(C)ccc(C(=O)[*:1])c3nc-2c(C(=O)[*:2])c(N)c1=O; NMeV = CN[C@H](C(=O)O)C(C)C; Sar = CNCC(=O)O

The term LD50 denotes the dose at which mortality reaches 50%.

The nature of this series: rat acute oral toxicity. The conditions noted are these: in vivo.
`CC(c1ccccc1)C(C)(C)N` (configuration not stated): the median lethal dose (LD50) is 180 mg/kg.

Consider `CN(C)CCCC(CCc1ccc2c(c1)OCO2)CCc1ccc2c(c1)OCO2`, for which the LD50 is 1230 mg/kg.

As for `CCCCOC(=O)COc1ccc(Cl)cc1C`, the LD50 is 914 mg/kg.

Turning to `C[N+]1(C)CCCC(OC(=O)C(O)(c2ccccc2)c2ccccc2)C1` (configuration not stated), the LD50 is 742 mg/kg.

With `C=CC(=O)OCCCl`, the LD50 was 180 mg/kg.

In the case of `CCOc1ccc(C2CC(N(CC)CC)c3ccccc32)cc1` (configuration not stated), the 50% lethal dose (LD50) was 860 mg/kg.

With `O=C(O)c1c(Cl)c(Cl)c(Cl)c(Cl)c1C(O)=Nc1cccc(Cl)c1Cl`, the LD50 was 2340 mg/kg.

As to `C=C(Cl)C(Cl)CCl` (configuration not stated), the 50% lethal dose (LD50) was 341 mg/kg.

Consider `O=C(O)C1CCc2cc(C3CCCCC3)c(Cl)cc21` (configuration not stated), for which the LD50 is 41 mg/kg and 35 mg/kg.

In the case of `Cc1cccc(C(C)c2ccccc2)c1C` (configuration not stated), the LD50 is 2050 mg/kg.

Consider `C[N+]12CCC(c3ccccc3)(CC1)C(=O)C2`, for which the LD50 was 1480 mg/kg.

Consider `CC(C)(C)CON=CC1C(C(=O)OC(C#N)c2cccc(Oc3ccccc3)c2)C1(C)C` (configuration not stated), for which the median lethal dose (LD50) was 143 mg/kg.

For `CC(=O)OC1c2c(ccc3ccc(=O)oc23)OC(C)(C)C1OC(=O)C=C(C)C` (configuration not stated), the LD50 was 832 mg/kg.

Regarding `C[n+]1ccc(-c2ccccc2)cc1`, the LD50 is 35 mg/kg.

Turning to `O=C(c1ccccc1)c1cccc2c1CCC2C(=O)O` (configuration not stated), the LD50 was 41.1 mg/kg.

In the case of `O=C1CCc2cc(CCCCN3CCN(c4ccccc4Cl)CC3)ccc2N1`, the LD50 is 500 mg/kg.

On to `N#CCC(=O)c1ccc(N)cc1`, for which the LD50 is 2260 mg/kg.

Consider `COC(=O)c1ccccc1N=NN(C)C`, for which the LD50 was 13 mg/kg.

As to `COC1CCC(OC2C(C)C(O)(C(C)C(=O)O)OC(CC3CC(OC)C(C)C4(O3)OC(C)(C3CCC(C5CCC(C6OC(C)(O)C(C)C(OC)C6C)O5)O3)C(OC)C4C)C2(C)OC)OC1C` (configuration not stated), the LD50 is 7 mg/kg.

As to `CN(C)CCN(Cc1ccccc1)c1ccccn1`, the LD50 was 469 mg/kg.

Take `COc1ccc([N+](=O)[O-])cc1Cl`: the median lethal dose (LD50) is 1180 mg/kg.

As to `CN(C)C(=O)NC1CCC2C3CCC(C3)C12` (configuration not stated), the LD50 is 1600 mg/kg.

For the molecule `CCOP(=O)(OCC)Oc1nc(Cl)c(Cl)cc1Cl`, the LD50 is 135 mg/kg.

Consider `CCOC(=O)N(C)SN(C)C(=O)O/N=C(\C)SC`, for which the LD50 is 226 mg/kg.

With `O=C(O)Cc1ccccc1Nc1c(Cl)cc(O)cc1Cl`, the LD50 is 190 mg/kg.

Take `CCC(COCC1CO1)(COCC1CO1)COCC1CO1` (configuration not stated): the LD50 was 3400 mg/kg.

In the case of `CCCCN(CCCC)SN(C)C(=O)ON=CC(C)(C)SC`, the LD50 is 12.5 mg/kg.

On to `CCCCC(CC)CCl` (configuration not stated), for which the LD50 is 7340 mg/kg.

In the case of `CN(Sc1ccc([N+](=O)[O-])cc1)C(=O)Oc1cccc2c1OC(C)(C)C2`, the LD50 is 25 mg/kg.

Turning to `CN(C)C(=O)OC1=CC(=O)CC(C)(C)C1`, the median lethal dose (LD50) was 120 mg/kg.

Turning to `S=C(Cl)Cl`, the LD50 was 929 mg/kg.

Regarding `CC(=O)CCCO`, the LD50 was 6400 mg/kg.

On to `CCC(=O)OC(C)c1ccccc1` (configuration not stated), for which the LD50 was 5200 mg/kg.

As to `CCn1cc(C(=O)O)c(=O)c2cc(F)c(N3CCNC(C)C3)c(F)c21` (configuration not stated), the LD50 is 3800 mg/kg and 1560 mg/kg.

`OC1CC2CC1C1CC3OC3C21` (configuration not stated): the LD50 was 3130 mg/kg.

Consider `CC1=C(C(=O)OC(C)C)C(c2cccc([N+](=O)[O-])c2)C(C(=O)OC2CN(C(c3ccccc3)c3ccccc3)C2)=C(N)N1` (configuration not stated), for which the LD50 is 1270 mg/kg.

With `C=Cc1ccc(CC)cn1`, the LD50 is 1230 mg/kg.

Regarding `COC(=O)C1(O)c2ccccc2-c2ccc(Cl)cc21` (configuration not stated), the LD50 was 3100 mg/kg.

As to `Cc1c(Cl)ccc(C(C)c2ccccc2)c1C` (configuration not stated), the 50% lethal dose (LD50) was 2130 mg/kg.

As for `CC(=O)OC1(C)CC(C)C(=O)C(C(O)CC2CC(=O)NC(=O)C2)C1` (configuration not stated), the LD50 is 0.158 mg/kg.

Take `CCCCC(=O)c1ccc(N)cc1`: the 50% lethal dose (LD50) is 84 mg/kg.

On to `C[C@]12CCC(=O)C=C1CC[C@@H]1[C@@H]2CC[C@@]2(C)[C@H]1CC[C@]2(C)O`, for which the LD50 was 2500 mg/kg.

As to `C=CC1OCC(C)O1` (configuration not stated), the LD50 is 890 mg/kg.

Turning to `c1ccc2c(c1)CN1CCN=C1N2`, the LD50 was 900 mg/kg.

As to `CCOC(C1=NCCCN1)c1ccccc1` (configuration not stated), the LD50 is 1540 mg/kg.

On to `CCCCC(CC)CN(CCO)CC(CC)CCCC` (configuration not stated), for which the LD50 was 4920 mg/kg.

Turning to `CN`, the LD50 was 1600 mg/kg.

Take `CCCSP(=S)(OC)SCCC`: the LD50 was 16 mg/kg.

For the molecule `Cc1ccc(N2C(=O)C=CC2=O)cc1`, the LD50 was 710 mg/kg.

As for `Cc1c2oc3c(C)ccc(C(=O)N[C@@H]4C(=O)N[C@H](C(C)C)C(=O)N5CCC[C@H]5C(=O)N(C)CC(=O)N(C)[C@@H](C(C)C)C(=O)O[C@@H]4C)c3nc-2c(C(=O)N[C@@H]2C(=O)N[C@H](C(C)C)C(=O)N3CCC[C@H]3C(=O)N(C)CC(=O)N(C)[C@@H](C(C)C)C(=O)O[C@@H]2C)c(N)c1=O` (I: T[dV]P[Sar][NMeV] / II: T[dV]P[Sar][NMeV]; ester I:1-I:C, II:1-II:C; linker I:N-II:N via Actinocin(9to1)), the LD50 is 7.2 mg/kg.

With `CCN(Cc1ccncc1)N=O`, the LD50 is 40 mg/kg.

On to `C=CC(=O)Nc1ccc(O)cc1`, for which the median lethal dose (LD50) is 930 mg/kg.

Turning to `CS(=O)(=O)OC[C@@H]1O[C@H]1[C@@H]1O[C@H]1COS(C)(=O)=O`, the LD50 is 225 mg/kg.

For the molecule `O=S(=O)(Oc1ccc(Cl)cc1Cl)c1ccccc1`, the LD50 was 1000 mg/kg.

Consider `Cc1ccc2c(c1)CC(=O)c1cc(C(C)C(=O)O)ccc1S2` (configuration not stated), for which the LD50 was 100 mg/kg.

For the molecule `COc1ccc2c(c1)-c1c(ccc(OC)c1O)CC(CCc1ccccc1)N(C)CC2` (configuration not stated), the LD50 is 500 mg/kg.

For the molecule `CCCC(=O)CCC`, the LD50 was 3730 mg/kg.
